Reference: ChEMBL document CHEMBL1136628, “Acylcyclohexanedione derivatives as potential in vivo sequential inhibitors of 4-hydroxyphenylpyruvate dioxygenase and GA(20) 3beta-hydroxylase” (Bioorg Med Chem Lett, 2003)

Target: 4-hydroxyphenylpyruvate dioxygenase (Sus scrofa, UniProt Q02110)
Assay: In vitro inhibitory concentration required against 4-hydroxyphenylpyruvate dioxygenase (4-HPPD) taken from pig liver

Chain of 4-hydroxyphenylpyruvate dioxygenase (Q02110 whole entry): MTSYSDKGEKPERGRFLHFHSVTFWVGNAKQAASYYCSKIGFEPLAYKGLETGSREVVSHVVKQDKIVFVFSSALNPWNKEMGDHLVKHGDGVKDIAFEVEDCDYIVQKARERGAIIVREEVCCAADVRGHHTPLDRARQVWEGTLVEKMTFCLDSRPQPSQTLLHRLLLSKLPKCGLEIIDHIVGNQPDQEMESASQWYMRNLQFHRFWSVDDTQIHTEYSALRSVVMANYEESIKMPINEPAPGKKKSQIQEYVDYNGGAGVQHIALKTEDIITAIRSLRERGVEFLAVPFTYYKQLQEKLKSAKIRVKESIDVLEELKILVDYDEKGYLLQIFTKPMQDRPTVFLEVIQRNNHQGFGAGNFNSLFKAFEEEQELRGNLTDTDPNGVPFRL

## CCOC(=O)C1CC(=O)C(C(=O)C2CC2)=C(NC(=O)C2CC2)C1 (stereo unspecified)
  IC50: 10 µM
